Structures can show the parent of a compound that is named as a salt.
Experiments:
[1] = test system: HSV I / herpes labialis (cold sores); test: Case reports: herpes labialis (cold sores) treated with bupropion; type: in vivo, humans
Excerpt: […] They have approximately 1 episode per month related to menstrual periods. This has been occurring for the last 6 years and has lasted for at least a week of every month. The severity varied according to […] general state of health and stress levels. The outbreaks lasted at least one week and have made a significant impact on their psychological state. They have not been on systemic therapy.
The third case was patient five, a entrepreneur. They have a coffee shop chain. They are thus very visible and they are very self-conscious of even minor blemishes on their face. They have mild herpes labialis (cold sores), which occurs approximately 5 times a year. They have taken intermittent acyelovir and has even considered continuous acyclovir, because of their image.
[…] They had been paying for acyclovir privately, despite the cost, because of their wish to suppress their frequent and unsightly lesions. […] An attack was treated within 24 hours on the two agents.
[…] This involved the nares, upper and lower lips bilaterally. […] Their partner also developed scarlet fever as well. […] It should be noted that this patient is usually very intolerant of medications and tends to vomit easily.
Her normal herpes labialis lasted between 5 and 7 days.

[2] = Side effects observed in the treated cases; type: in vivo, humans
Excerpt: The sixth case was patient two, a reporter. […] This was given for recurrent buttock herpes simplex II, This was ceased and after 1 year, the hypertension and renal impairment reverted to normal. […] This involved the nares, upper and lower lips bilaterally. Even after topical acyclovir, the course of the illness was 2 weeks of significant outbreak. […] Their partner also developed scarlet fever as well. […] It should be noted that this patient is usually very intolerant of medications and tends to vomit easily.

[3] = test system: HSV I / herpes labialis (cold sores); test: Case reports: herpes labialis (cold sores) treated with bupropion; type: in vivo, humans; remark: listed apart in the source
[4] = test system: genital Herpes Simplex viral infection; test: Case reports: recurrent genital herpes treated with bupropion; type: in vivo, humans
Excerpt: There were 5-6 recurrences per year. […] The fourth case was patient one, a student with extensive genital herpes. They have had 4 attacks thus far, which have been treated initially with acyclovir and then later with famciclovix. The normal duration of these attacks on these agents was 5-7 days. They were unable to attend classes and took a further 2 weeks before they felt normal. A big feature of their illness is the severe fatigue that precedes and follows their attacks. […] They had not developed any post-[…] fatigue either. They later used a further 2 day course when they felt tingling.

[5] = test system: neuronal uptake of noradrenahne (NA); conditions: cited from earlier work
[6] = test system: neuronal uptake of dopamine (DA); conditions: cited from earlier work
[7] = test system: herpes simplex II; test: Case report: recurrent buttock herpes simplex II; type: in vivo, humans; conditions: Example 6, case two
Excerpt: The sixth case was patient two, a reporter. […] This was given for recurrent buttock herpes simplex II, This was ceased and after 1 year, the hypertension and renal impairment reverted to normal.

[8] = test system: monoamine oxidase; conditions: cited from earlier work
[9] = test system: herpes virus; test: Overall assessment of the case series against other anti-viral agents; type: in vivo, humans; conditions: treatment and prevention of infections caused by the herpes virus
Excerpt: The physician conducting the above trials has reported that the results thus far have been beyond expectation. They are commented that “not only has there been a success from a completely unlikely agent, but there has also been a success beyond that achieved by the well-established anti-viral agents.”

[10] = Example 1, case gamma, 4 doses of 150 mg over 2 days
[11] = Example 4, case one, 300 mg twice daily for 2 days

SMILES: Nc1nc2c(ncn2COCCO)c(=O)[nH]1 [acyclovir]
- duration of attacks ([1]; Example 3, case five, mild herpes labialis, taken with the tingling): 3 days
- severity of attacks ([1]; Example 3, case five, taken with the tingling): barely detectable
- lesions during suppressive therapy ([1]; Example 5, case beta, recurrent herpes labialis): breakthrough lesions
- course of the illness (significant outbreak) ([1]; Example 7, case three, severe herpes labialis, topical): 2 weeks
- adverse effects ([2]; Example 6, case two, given for recurrent buttock herpes simplex II, reverted to normal 1 year after ceasing): developed hypertension and mild renal impairment
- effect of topical therapy ([3]; Example 8, medical receptionist, herpes labialis, topical, in the past): unhelpful
- effect in aborting the attacks ([4]; Example 1, case gamma): partially effective
- duration of the attacks ([4]; Example 1, case gamma, recurrent genital Herpes Simplex, reduced from 2 weeks): 5 to 7 days

SMILES: CC(NC(C)(C)C)C(=O)c1cccc(Cl)c1 (racemic) [bupropion, (±)-1-(3-chlorophenyl)-2-[(1,1-dimethylethyl)-amino)-1-propanone hydrochloride]
- inhibition of neuronal uptake of noradrenaline [5]: relatively weak inhibitor
- inhibition of neuronal uptake of dopamine [6]: relatively weak inhibitor
- eruptions ([7]; taken at onset of pre-outbreak symptoms): has not had an eruption since
- inhibition of monoamine oxidase [8]: does not inhibit
- complete resolution of lesions (day of outbreak) ([1]; Example 2, case four, HSV I cold sores, 300 mg twice daily for 2 days from day 2 of outbreak): ≤ 3 days
- minor recurrence one week later ([1]; Example 2, case four, similar dosage): aborted by a similar dosage within the first day
- eruptions ([1]; Example 3, case five, 2 tablets of 150 mg when they feel the tingling): has not had an eruption in the last 3 months
- outbreak after tingling of the lip ([1]; Example 5, case beta, 150 mg every 12 hours for 2 days, two episodes): No outbreak of herpes labialis occurred
- lesion by day 5 ([1]; Example 7, case alpha): hardly noticeable
- time after which the lesion started disappearing ([1]; Example 7, case alpha): 3 days
- progression of lesions ([1]; Example 7, case three, within 36 hours of taking 300 mg): did not progress from their initial lesion
- comparison with other anti-viral agents such as acydovir and famciclovir [9]: superior to many other anti-viral agents
- concurrent scarlet fever ([2]; Example 7, case alpha): did not worsen
- side effects ([2]; Example 7, case three, usually very intolerant of medications): No side effects were noticed
- time until the lesion had dried out ([3]; Example 8, 150 mg twice daily for 2 days): ≤ 24 h
- further time until the lesion was scabbing ([3]; Example 8, 150 mg twice daily for 2 days, after drying out): ≤ 12 h
- time to complete resolution (later) ([3]; Example 8, 150 mg twice daily for 2 days, after scabbing): 3 days
- time until the attack was aborted ([4]; Example 1, case gamma, first use of bupropion): ≤ 2 days
- outcome of an attack about to commence [4, 10]: aborts the attack completely, or reduces it to a small crop of lesions
- time to complete healing of the small crop of lesions [4, 10]: ≤ 48 h
- recurrence since commencing the regime ([4]; Example 1, case gamma, over one year): There has not been a single significant recurrence
- lesions after treatment [4, 11]: lesions had cleared completely
- post-viraemia fatigue [4, 11]: had not developed any post-viraemia fatigue
- eruptions after a further course at tingling ([4]; Example 4, case one, further 2 day course): did not develop any eruptions

SMILES: CC(=O)OCC(CCn1cnc2cnc(N)nc21)COC(C)=O [Famciclovir]
- interval between minor outbreaks (approximately once every) ([7]; continuous therapy): 2-3 months
- suppression of disease ([7]; continuous therapy): successfully suppressed their disease

Reference: patent US20020173551A1 (priority 1998, published 2002)
